ChEMBL document CHEMBL4138146, “A Schmidt rearrangement-mediated synthesis of novel tetrahydro-benzo[1,4]diazepin-5-ones as potential anticancer and antiprotozoal agents” (Eur J Med Chem, 2017)

Legend:
Type in all cases: functional
BT-549 = assay: Growth inhibition of human BT549 cells assessed as cell growth at 10^-5 M incubated for 48 hrs by sulforhodamine B assay relative to control; conditions: BT-549, 48 h, read-out: Activity
SK-MEL-28 = assay: Growth inhibition of human SK-MEL-28 cells assessed as cell growth at 10^-7 M incubated for 48 hrs by sulforhodamine B assay relative to control; conditions: SK-MEL-28, 48 h, read-out: Activity
HL-60(TB) = assay: Growth inhibition of human HL-60(TB) cells assessed as cell growth at 10^-7 M incubated for 48 hrs by sulforhodamine B assay relative to control; conditions: HL-60, 48 h, read-out: Activity
HCC 2998 = assay: Growth inhibition of human HCC2998 cells assessed as cell growth at 10^-8 M incubated for 48 hrs by sulforhodamine B assay relative to control; conditions: HCC 2998, 48 h, read-out: Activity
SF-539 = assay: Growth inhibition of human SF539 cells assessed as cell growth at 10^-6 M incubated for 48 hrs by sulforhodamine B assay relative to control; conditions: SF-539, 48 h, read-out: Activity
786-0 = assay: Growth inhibition of human 786-0 cells assessed as cell growth at 10^-5 M incubated for 48 hrs by sulforhodamine B assay relative to control; conditions: 786-0, 48 h, read-out: Activity

SMILES: CCCCOc1nc2ccccc2cc1C1CNC(=O)c2ccccc2N1 (stereo unspecified)
- growth at 10 µM (BT-549): 36%
- growth at 0.1 µM (SK-MEL-28): 98%
- growth at 0.1 µM (HL-60(TB)): 26%
- growth at 0.01 µM (HCC 2998): 99%
- growth at 1 µM (SF-539): 85%
- growth at 10 µM (786-0): 1%
